Reference: patent US10723741B1, “DNA polymerase IIIC inhibitors and use thereof” (Acurx Pharmaceuticals, LLC, priority 2018, dated 2020)
≈ marks a conversion by molar mass, not a printed value. Like-named read-outs stand apart in the source and are kept apart here.

What was measured:
Type in all cases: cell-based
[1] = system: Bacillus subtilis ATCC 6633; assay: Broth microdilution MIC, B. subtilis ATCC 6633; settings: ATCC6633, broth microdilution, 37° C., 20 hours, read-out: MIC B. subtilis ATCC 6633
Text: (§1) Bacteria tested are Staphylococcus aureus NRS384 (a methicillin-resistant Staphylococcus aureus, MRSA), Staphylococcus aureus ATCC 29213 (a methicillin-sensitive Staphylococcus aureus, MSSA), Streptococcus pneumoniae ATCC 49619, Enterococcus faecalis ATCC 29212, Enterococcus faecium ATCC 700221 (a vancomycin-resistant enterococcus, VRE), Bacillus subtilis ATCC 6633, and Escherichia coli ATCC 25922.
(§2) Staphylococcus aureus NRS384 was obtained from NARSA (Network on Antimicrobial Resistance in Staphylococcus aureus, now the strain collection is in BEI resources). Other bacterial isolates were from ATCC (The American Type Culture Collection). Upon receiving the bacteria samples from aforementioned institutes, the bacteria were cultured according to the manuals provided by the suppliers. The bacteria were stored in 25% glycerol (final concentration) at −80° C.
(§3) On the day of testing, the compounds were dissolved in pure DMSO (Sigma 276855-1L) to […] as stock. In a v-bottom 96-well plate (Axygen-wipp02280), 20 μl DMSO was added into well 2 to well 12 by manual pipetting. Into well 1, 12.8 μL of compound DMSO stock (20 mg/ml) was added and mixed with 27.2 μl DMSO by pipetting. Two fold serial dilutions were performed by transferring and mixing 20 μl of solution from well 1 to well 2, then well 2 to well 3 and so forth until well 11. The well 12 was loaded with 20 μl DMSO without compounds. This was drug ‘mother plate’. From well 1 to well 12, the drug concentrations in the mother plate were […] in DMSO. A multi-pipette was used to perform the serial dilutions. The concentration may be adjusted according to the potency of the compounds. An Echo® Acoustic liquid handling system may be used to replace manual pipetting to make the daughter plates.
(§4) One day prior to the day of MIC testing, bacterial strains were streaked out from −80° C. glycerol stocks onto MHA plates and incubated at 37° C. for 20 hours. Streptococcus pneumoniae was streaked on blood agar and incubated at 37° C. in 5% CO2. The single colonies were picked by using an inoculation loop (Greiner-731175) and suspended into 5 ml sterile saline. The turbidity of the suspension was adjusted to 0.10 (Siemens MicroScan turbidity meter), equal to ˜1.0×10^8 cfu/ml. The bacterial suspension was diluted 200× in corresponding test medium (Table 1). This was used to inoculate daughter plates.
(§5) For preparing u-bottom 96-well ‘daughter plates’ (Costar 3788), an aliquot of 1 μl solution from mother plate was then replicating transferred into the daughter plate using a multi-pipette.
(§6) An aliquot of 99 μl of the bacterial suspension was inoculated into each well of the daughter plates using a multi-pipette. Each well contained ˜5.0×10^5 cfu/ml bacteria, 1% DMSO and serially diluted compounds at 64, 32, 16, 8, 4, 2, 1, 0.5, 0.25, 0.125, 0.0625 and 0 μg/ml from well 1 to well 12 respectively, in 100 μl corresponding test medium.
(§7) The plates were incubated in ambient atmosphere and in a 37° C. incubator for 20 hours.
(§8) Compounds of the present invention were tested for antibacterial activity against a variety of bacterial organism including Bacillus subtilis, Staphylococcus aureus, Enterococcus faecalis, Enterococcus faecium, Streptococcus pneumoniae and Escherichia coli. […] Compounds described in Examples 2, 44, 53, 56, 90, 134, 212, 213, 214, 218, 222, 304, 305, and 307 had MIC of ≤1 μg/ml against S. aureus NRS 384 (MRSA) (μg/ml) and E. faecium ATCC 700221 (VRE) (μg/ml).

[2] = system: Enterococcus faecium ATCC 700221 (VRE); assay: Broth microdilution MIC, E. faecium ATCC 700221 (VRE); design: MIC E. faecium ATCC 700221 (VRE): unit: ug/mL; settings: broth microdilution, 37° C., 20 hours; for MIC: Enterococcus faecium, read-out: MIC E. faecium ATCC 700221 (VRE)
Text: as §1, §2, §3, §4, §5, §6, §7, §8

[3] = system: Enterococcus faecalis ATCC 29212; assay: Broth microdilution MIC, E. faecalis ATCC 29212; settings: ATCC29212, broth microdilution, 37° C., 20 hours, read-out: MIC E. faecalis ATCC 29212
Text: as §1, §2, §3, §4, §5, §6, §7, §8

[4] = system: Staphylococcus aureus NRS384 (MRSA); assay: Broth microdilution MIC, S. aureus NRS384 (MRSA); design: MIC NRS 384 (MRSA): unit not given here; settings: broth microdilution, 37° C., 20 hours; for MIC: Staphylococcus aureus, read-out: MIC NRS 384 (MRSA)
Text: as §1, §2, §3, §4, §5, §6, §7, §8

[5] = system: Staphylococcus aureus ATCC 29213 (MSSA); assay: Broth microdilution MIC, S. aureus ATCC 29213 (MSSA); settings: broth microdilution, 37° C., 20 hours, read-out: MIC S. aureus ATCC 29213 (MSSA)
Text: as §1, §2, §3, §4, §5, §6, §7, §8

[6] = system: Escherichia coli ATCC 25922; assay: Broth microdilution MIC, E. coli ATCC 25922 (MHIIB w & w/o 4 mM EDTA); settings: broth microdilution, 37° C., 20 hours; for MIC: Escherichia coli, ATCC25922, without EDTA, read-out: MIC E. coli ATCC 25922; for MIC E. coli ATCC 25922 + 4 mM EDTA: with 4 mM EDTA
Text: as §1, §2, §3, §4, §5, §6, §7, §8

[7] = system: Streptococcus pneumoniae ATCC 49619; assay: Broth microdilution MIC, S. pneumoniae ATCC 49619; settings: ATCC49619, broth microdilution, 37° C., 20 hours, read-out: MIC S. pneumoniae ATCC 49619
Text: as §1, §2, §3, §4, §5, §6, §7, §8

| SMILES | MIC [1] [µg/mL] | MIC [2] [µg/mL] | MIC [3] [µg/mL] | MIC [4] [µg/mL] | MIC [5] [µg/mL] | MIC [6] [µg/mL] | MIC E. coli ATCC 25922 + 4 mM EDTA [6] [µg/mL] | MIC [7] [µg/mL] | MIC E. faecium ATCC 700221 (VRE) [2] | MIC NRS 384 (MRSA) [4] | MIC ([4]; S. aureus NRS 384) [µg/mL] |
| --- | --- | --- | --- | --- | --- | --- | --- | --- | --- | --- | --- |
| O=c1[nH]c(NCc2ccc(Cl)c(Cl)c2)nc2cnn(CCOCCCO)c12 [Compound 168, 5-[(3,4-dichlorophenyl)methylamino]-1-[2-(3-hydroxypropoxy)ethyl]-6H-pyrazolo[4,3-d]pyrimidin-7-one] | 4 (≈ 9.7 µM) | 4 (≈ 9.7 µM) | 8 (≈ 19.4 µM) | 8 (≈ 19.4 µM) | 8 (≈ 19.4 µM) | > 64 | >64 | 8 (≈ 19.4 µM) |  |  |  |
| Cn1ncc2nc(NCc3cccc(Cl)c3Cl)[nH]c(=O)c21 [Compound 29, 5-((2,3-Dichlorobenzyl)amino)-1-methyl-1H-pyrazolo[4,3-d]pyrimidin-7(6H)-one] | > 64 | > 64 | > 64 | > 64 | > 64 | > 64 | >64 | > 64 |  |  |  |
| O=c1[nH]c(NCc2ccc(Cl)c(Cl)c2)nc2cnn(CCOCCO)c12 [Compound 88, 5-((3,4-dichlorobenzyl)amino)-1-(2-(2-hydroxyethoxy)ethyl)-1H-pyrazolo[4,3-d]pyrimidin-7(6H)-one] | 2 (≈ 5.02 µM) | 2 (≈ 5.02 µM) | 4 (≈ 10 µM) | 4 (≈ 10 µM) | 4 (≈ 10 µM) | > 64 | >64 | 2 (≈ 5.02 µM) |  |  |  |
| Cl.O=c1[nH]c(NCc2ccc(Cl)c(Cl)c2)nc2cnn(Cn3cncn3)c12 [Compound 101, 1-((1H-1,2,4-triazol-1-yl)methyl)-5-((3,4-dichlorobenzyl)amino)-1H-pyrazolo[4,3-d]pyrimidin-7(6H)-one hydrochloride] | 2 |  | 4 |  | 4 | > 64 | 64 | 4 | 2/4 | 8/8 |  |
| COCCN1CC(Cn2ncc3nc(NCc4ccc(Cl)c(Cl)c4)[nH]c(=O)c32)CC1=O (centres unmarked) [Compound 176, 5-((3,4-dichlorobenzyl)amino)-1-((1-(2-methoxyethyl)-5-oxopyrrolidin-3-yl)methyl)-1H-pyrazolo[4,3-d]pyrimidin-7(6H)-one] | 4 (≈ 8.6 µM) | 4 (≈ 8.6 µM) | 8 (≈ 17.2 µM) | 16 (≈ 34.4 µM) | 16 (≈ 34.4 µM) | > 64 | >64 | 4 (≈ 8.6 µM) |  |  |  |
| CN1CC2CC1CN2CCn1ncc2nc(NCc3ccc(Cl)c(Cl)c3)[nH]c(=O)c21.Cl.Cl (centres unmarked) [Compound 69, 5-((3,4-Dichlorobenzyl)amino)-1-(2-(5-methyl-2,5-diazabicyclo[2.2.1]heptan-2-yl)ethyl)-1H-pyrazolo[4,3-d]pyrimidin-7(6H)-one dihydrochloride] | 4 | > 64 | 32 | 64 | 32 | > 64 | >64 | 8 |  |  |  |
| Cn1ncc2nc(NCc3c(Cl)cccc3Cl)[nH]c(=O)c21 [Compound 30, 5-((2,6-Dichlorobenzyl)amino)-1-methyl-1H-pyrazolo[4,3-d]pyrimidin-7(6H)-one] | > 64 | > 64 | > 64 | > 64 | > 64 | > 64 | >64 | > 64 |  |  |  |
| Cn1nc(CCO)c2nc(NCc3ccc(Cl)c(Cl)c3)[nH]c(=O)c21 [Compound 48, 5-((3,4-dichlorobenzyl)amino)-3-(2-hydroxyethyl)-1-methyl-1H-pyrazolo[4,3-d]pyrimidin-7(6H)-one] | 4 (≈ 10.9 µM) | 8 (≈ 21.7 µM) | 16 (≈ 43.5 µM) | 4 (≈ 10.9 µM) | 8 (≈ 21.7 µM) | > 64 | >64 | 4 (≈ 10.9 µM) |  |  |  |

The remaining lines, values ahead:

| MIC [1] [µg/mL] | MIC [2] [µg/mL] | MIC [3] [µg/mL] | MIC [4] [µg/mL] | MIC [5] [µg/mL] | MIC [6] [µg/mL] | MIC E. coli ATCC 25922 + 4 mM EDTA [6] [µg/mL] | MIC [7] [µg/mL] | MIC E. faecium ATCC 700221 (VRE) [2] | MIC NRS 384 (MRSA) [4] | MIC ([4]; S. aureus NRS 384) [µg/mL] | SMILES |
| --- | --- | --- | --- | --- | --- | --- | --- | --- | --- | --- | --- |
| 1 (≈ 2.28 µM) | 4 (≈ 9.13 µM) | 8 (≈ 18.3 µM) | 4 (≈ 9.13 µM) | 4 (≈ 9.13 µM) | > 64 | >64 | 4 (≈ 9.13 µM) |  |  |  | COCCOC/C=C/Cn1ncc2nc(NCc3ccc(Cl)c(Cl)c3)[nH]c(=O)c21 [Compound 193, (E)-5-((3,4-dichlorobenzyl)amino)-1-(4-(2-methoxyethoxy)but-2-en-1-yl)-1H-pyrazolo[4,3-d]pyrimidin-7(6H)-one] |
| 8 (≈ 21.1 µM) | 16 (≈ 42.2 µM) | 16 (≈ 42.2 µM) |  | 16 (≈ 42.2 µM) | > 64 | >64 | 32 (≈ 84.4 µM) |  |  | 16 (≈ 42.2 µM) | Cc1cc(CNc2nc3c(F)nn(CCOCCO)c3c(=O)[nH]2)ccc1F [Compound 311, 3-Fluoro-5-((4-fluoro-3-methylbenzyl)amino)-1-(2-(2-hydroxyethoxy)ethyl)-1H-pyrazolo[4,3-d]pyrimidin-7(6H)-one] |
| 0.5 (≈ 1.14 µM) | 2 (≈ 4.56 µM) | > 64 | 2 (≈ 4.56 µM) | 2 (≈ 4.56 µM) | > 64 | >64 | 8 (≈ 18.3 µM) |  |  |  | CCOC(=O)CCCCn1ncc2nc(NCc3ccc(Cl)c(Cl)c3)[nH]c(=O)c21 [Compound 203, ethyl 5-(5-((3,4-dichlorobenzyl)amino)-7-oxo-6,7-dihydro-1H-pyrazolo[4,3-d]pyrimidin-1-yl)pentanoate] |
| 8 (≈ 20.9 µM) | 8 (≈ 20.9 µM) | 16 (≈ 41.9 µM) | 16 (≈ 41.9 µM) | 32 (≈ 83.7 µM) | > 64 | >64 | 16 (≈ 41.9 µM) |  |  |  | O=C(CO)Cn1ncc2nc(NCc3ccc(Cl)c(Cl)c3)[nH]c(=O)c21 [Compound 290, 5-((3,4-dichlorobenzyl)amino)-1-(3-hydroxy-2-oxopropyl)-1H-pyrazolo[4,3-d]pyrimidin-7(6H)-one] |
| 2 (≈ 5.27 µM) | 8 (≈ 21.1 µM) | 16 (≈ 42.2 µM) |  | 8 (≈ 21.1 µM) | > 64 | >64 | 8 (≈ 21.1 µM) |  |  | 16 (≈ 42.2 µM) | Cc1ccc(CNc2nc3c(F)nn(CCOCCO)c3c(=O)[nH]2)cc1F [Compound 313, 3-Fluoro-5-((3-fluoro-4-methylbenzyl)amino)-1-(2-(2-hydroxyethoxy)ethyl)-1H-pyrazolo[4,3-d]pyrimidin-7(6H)-one] |
